Data reported in patent publication US5116863A, “Dibenz[b,e]oxepin derivative and pharmaceutical compositions thereof” (Kyowa Hakko Kogyo Co., Ltd., priority 1986, dated 1992).
Like-named read-outs stand apart in the source and are kept apart here.

Columns and labels:
[1] = system: homologous PCA (passive cutaneous anaphlaxis) of rats; assay: Homologous PCA (passive cutaneous anaphylaxis) test of rats for 48 hours, oral (antiallergic activity); assay type: in vivo, Wistar male rats; settings: for minimal effective dose / responders at 0.01 mg/kg / responders at 0.1 mg/kg / responders at 1 mg/kg / responders at 10 mg/kg / responders at 100 mg/kg / responders at 0.001 mg/kg: Rattus norvegicus; for minimal effective dose: read-out: MED (minimum effective dosage), PCA inhibition; for responders at 0.01 mg/kg / responders at 0.1 mg/kg / responders at 1 mg/kg / responders at 10 mg/kg / responders at 100 mg/kg / responders at 0.001 mg/kg: po; for responders at 0.01 mg/kg: dosage 0.01 mg/kg; for responders at 0.01 mg/kg / responders at 0.1 mg/kg / responders at 1 mg/kg / responders at 10 mg/kg / responders at 100 mg/kg / responders at 0.001 mg/kg / Number of positive zooids in one group of 3 zooids: positive = inhibition rate 50% or higher; for responders at 0.01 mg/kg / responders at 0.1 mg/kg / responders at 1 mg/kg / responders at 10 mg/kg / responders at 100 mg/kg: read-out: Number of positive zooids in one group of 3 zooids (converted); for responders at 10 mg/kg: dosage 10 mg/kg; for responders at 100 mg/kg: dosage 100 mg/kg; for responders at 0.001 mg/kg: dosage 0.001 mg/kg, read-out: Number of positive zooids in one group of 3 zooids
Method: Antiallergic activity was investigated by a homologous PCA (passive cutaneous anaphlaxis) of rats for 48 hours, where Wistar male rats having body weights of 180 to 220 g were used for sampling of antiserum and Wistar male rats having body weights of 120 to 140 g were used for the PCA test.
Anti-egg white albumin (EWA) rat serum was prepared according to Stotland and Share's method [Canad. J. Physiol. Pharmacol. 52, 1114 (1974)]. That is, 1 mg of EWA was mixed with 20 mg of aluminum hydroxide gel and 0.5 ml of mixed vaccine of pertussis, diphtheria and tetanus, and the mixture was subcutaneously administered in four portions into rat's footpad. After 14 days, blood was sampled from the carotid artery, and the serum was separated from the sampled blood, and preserved under freezing at -80° C. The potency of the antiserumin in the homologous PCA for 48 hours was 1:32.
Groups each consisting of 3 rats were used, and 0.05 ml of anti-EWA rat serum diluted with a physiological saline solution to 8 times as much was incutaneously injected each at two positions of depilated back to make the animals passively sensitised. After 47 hours, the compound of the present invention, or its solution (physiological saline solution or CMC solution) was orally administered. One hour thereafter, 0.5 ml/100 g of 1% Evan's blue physiological saline solution containing 2 mg of the antigen EWA was administered into the tail vein, and 30 minutes thereafter, the animals were sacrificed by exsanguination. Then, the skins were stripped and the amount of leaked pigment at the blue-dyed parts was measured according to the Katayama et al method [Microbiol. Immunol. 22, 89 (1978)]. That is, the blue-dyed parts were cut out by scissors, and placed in test tubes containing 1 ml of 1N KOH and incubated at 37° C. for 24 hours. Then, 9 ml of a mixture of 0.6N phosphoric acid and acetone (5:13) was added thereto, and the mixture was shaked and centrifuged at 2,500 rpm for 10 minutes. Absorbancy of the supernatant at […] was measured, and the amount of leaked pigment was quantitatively determined by the calibration curve prepared in advance. An average of measurements at the two position was made a value for one zooid, and inhibition rate for the individual zooid was calculated by the following formula: [formula]

dd, male mice = assay type: in vivo
Method: Groups each consisting of 3 dd, male mice having body weights of 20±1 g were used, and the compound of the present invention was administered orally (po: 300 mg/kg) or intraperitoneally (ip: 100 mg/kg).

[2] = minimum dosage with positive case in at least one of three rats
[3] = mice, mortality 7 days after administration

Row | Structure (SMILES) | minimal effective dose [1, 2] | responders at 0.01 mg/kg [1] | responders at 0.1 mg/kg ([1]; dosage 0.1 mg/kg) | responders at 1 mg/kg ([1]; dosage 1 mg/kg) | responders at 10 mg/kg [1] | responders at 100 mg/kg [1] | Acute toxicity (MLD), ip (dd, male mice; [3]) | Acute toxicity (MLD), po (dd, male mice; [3]) | Acute toxicity (MLD), ip (dd, male mice; mouse, in vivo, 10080 min) | Acute toxicity (MLD), po (dd, male mice; mouse, in vivo, 10080 min) | responders at 0.001 mg/kg [1] | Number of positive zooids in one group of 3 zooids ([1]; dosage 0.1 mg/kg, listed as 31') | Number of positive zooids in one group of 3 zooids ([1]; dosage 1 mg/kg, listed as 31') | Number of positive zooids in one group of 3 zooids ([1]; dosage 0.1 mg/kg) | Number of positive zooids in one group of 3 zooids ([1]; dosage 1 mg/kg) | MED (minimum effective dosage), PCA inhibition [1, 2]
1 | CN(C)CCCC=C1c2ccccc2COc2ccc(CC(=O)O)cc21 [Compound 22, 11-(4-Dimethylaminobutylidene)-6,11-dihydrodibenz[b,e]oxepin-2-acetic acid] | 0.1 mg/kg | 0% | 33.3% | 66.7% | 100% | 100% | > 100 mg/kg | > 300 mg/kg | – | – | – | – | – | – | – | –
2 | O=C(O)c1ccc2c(c1)/C(=C\CN1CCSCC1)c1ccccc1CO2 [Compound 15, 11-(2-Thiomorpholinoethylidene)-6,11-dihydrodibenz[b,e]oxepin-2-carboxylic acid] | 100 mg/kg | – | 0% | 0% | 0% | 100% | – | – | – | – | – | – | – | – | – | –
3 | CN(C)CC/C=C1\c2ccccc2COc2ccc(C(=O)O)cc21 [3'] | 0.1 mg/kg | 0% | 33.3% | 33.3% | 66.7% | 100% | – | – | – | – | – | – | – | – | – | –
4 | CN1CCN(C/C=C2\c3ccccc3COc3ccc(C(=O)O)cc32)CC1 [Compound 11, 11-[2-(4-Methylpiperazino)ethylidene]-6,11-dihydrodibenz[b,e]oxepin-2-carboxylic acid] | 10 mg/kg | – | 0% | 0% | 33.3% | 66.7% | – | – | > 100 mg/kg | > 300 mg/kg | – | – | – | – | – | –
5 | CN(C)CC/C=C1/c2ccccc2COc2ccc(CCO)cc21 [Compound 31 (cis), Cis-11-(3-dimethylaminopropylidene)-2-(2-hydroxyethyl)-6,11-dihydrodibenz[b,e]oxepin] | 0.1 mg/kg | 0% | 66.7% | 100% | 100% | – | > 100 mg/kg | 300 mg/kg | – | – | 0% | – | – | – | – | –
6 | CN(C)CC/C=C1\c2ccccc2COc2ccc(CC(=O)O)cc21 [20'] | 0.1 mg/kg | 0% | – | 100% | – | – | – | – | – | – | – | – | – | – | – | –
7 | CCN(CC)CC/C=C1/c2ccccc2COc2ccc(C(=O)O)cc21 [Compound 5, 11-(3-Diethylaminopropylidene)-6,11-dihydrodibenz[b,e]oxepin-2-carboxylic acid] | 1 mg/kg | 0% | – | 100% | 100% | 100% | – | – | > 100 mg/kg | > 300 mg/kg | – | – | – | – | – | –
8 | CN(C)CC/C=C1/c2ccccc2COc2ccc(CCCO)cc21 [Compound 33, Cis-11-(3-dimethylaminopropylidene)-2-(3-hydroxypropyl)-6,11-dihydrodibenz[b,e]oxepin; Trans-11-(3-dimethylaminopropylidene)-2-(3-hydroxypropyl)-6,11-dihydrodibenz[b,e]oxepin] | 1 mg/kg | – | 0% | 33.3% | 100% | 100% | – | – | – | – | – | – | – | – | – | –
9 | CN(C)CCCC=C1c2ccccc2COc2ccc(C(=O)O)cc21 [Compound 9, 11-(4-Dimethylaminobutylidene)-6,11-dihydrodibenz[b,e]oxepin-2-carboxylic acid] | 1 mg/kg | 0% | 0% | 66.7% | 100% | 100% | > 100 mg/kg | > 300 mg/kg | – | – | – | – | – | – | – | –
10 | CN(C)CC/C=C1\c2ccccc2COc2ccc(CCC(=O)O)cc21 [Compound 28 (trans), Trans-3-[11-(3-dimethylaminopropylidene)-6,11-dihydrodibenz[b,e]oxepin-2-yl]-propionic acid] | 0.01 mg/kg | 33.3% | 66.7% | 66.7% | 100% | 100% | > 100 mg/kg | > 300 mg/kg | – | – | 0% | – | – | – | – | –
11 | CN(C)CC/C=C1\c2ccccc2COc2ccc(CCO)cc21 [Compound 31, 11-(3-Dimethylaminopropylidene)-2-(2-hydroxyethyl)-6,11-dihydrodibenz[b,e]oxepin] | 0.1 mg/kg | 0% | – | – | 100% | 100% | – | – | > 100 mg/kg | > 300 mg/kg | – | 1/3 | 3/3 | – | – | –
12 | O=C(O)c1ccc2c(c1)C(=CCN1CCOCC1)c1ccccc1CO2 [Compound 13, 11-(2-Morpholinoethylidene)-6,11-dihydrodibenz[b,e]oxepin-2-carboxylic acid] | 10 mg/kg | – | 0% | 0% | 33.3% | 100% | > 100 mg/kg | > 300 mg/kg | – | – | – | – | – | – | – | –
13 | CCN(CC)CCN=C1c2ccccc2COc2ccc(C(=O)O)cc21 [Compound 35, 11-(2-Diethylaminoethyl)imino-6,11-dihydrodibenz[b,e]oxepin-2-carboxylic acid] | 10 mg/kg | – | – | 0% | 33.3% | 100% | > 100 mg/kg | > 300 mg/kg | – | – | – | – | – | – | – | –
14 | CN(C)CC/C=C1\c2ccccc2COc2ccc(CCO)cc21 [Compound 31 (trans), Trans-11-(3-dimethylaminopropylidene)-2-(2-hydroxyethyl)-6,11-dihydrodibenz[b,e]oxepin] | – | – | – | – | – | – | > 100 mg/kg | > 300 mg/kg | – | – | – | – | – | 3/3 | 2/3 | 0.1 mg/kg
15 | CN(C)CC/C=C1/c2ccccc2COc2ccc(C(=O)O)cc21 [Compound 3 (cis), Cis-11-(3-dimethylaminopropylidene)-6,11-dihydrodibenz[b,e]oxepin-2-carboxylic acid] | 0.1 mg/kg | 0% | 100% | 100% | 100% | 100% | > 100 mg/kg | > 300 mg/kg | – | – | – | – | – | – | – | –
16 | CN(C)CCC=C1c2ccccc2COc2ccc(CCC(=O)O)cc21 [Compound 28, 3-[11-(3-Dimethylaminopropylidene)-6,11-dihydrodibenz[b,e]oxepin-2-yl]-propionic acid] | 0.01 mg/kg | 66.7% | 66.7% | 100% | 100% | 100% | > 100 mg/kg | > 300 mg/kg | – | – | 0% | – | – | – | – | –
17 | CCN(CC)CCN=C1c2ccccc2COc2ccc(CCC(=O)O)cc21 [Compound 43, 3-[11-(2-Diethylaminoethyl)imino-6,11-dihydrodibenz[b,e]oxepin-2-yl]-propionic acid] | 10 mg/kg | – | 0% | 0% | 66.7% | 100% | > 100 mg/kg | > 300 mg/kg | – | – | – | – | – | – | – | –
